Experimental data reported in paper PMC5697638, “Identification of a Potent Phosphoinositide 3‐Kinase Pan Inhibitor Displaying a Strategic Carboxylic Acid Group and Development of Its Prodrugs” (Chemmedchem, 2017).

Experiments:
Format in all cases: biochemical
[1] = molecular target: T1, human PI3Kα (PIK3CA/PIK3R1) (Homo sapiens, UniProt P42336); assay: lipid kinase assay (ADP-Glo), PI3Kα; conditions: for inhibition at 1 µM: determined at 1 μM, at least triplicate, read-out: Inhibitory activity, PI3K isoform α; for IC50: Table 2, mean of at least three determinations, 95 % confidence intervals, read-out: IC50 PI3Kα
T1 construct: purchased ProQinase, Germany 1161‐1165‐1
Procedure: (§1) In vitro selection, lipid kinase assay: To determine the inhibitory activity of the new molecular entities on PI3K enzyme, a lipid kinase assay was performed: recombinant proteins (30 ng), human PI3Kα (PIK3CA/PIK3R1, #1161‐1165‐1 ProQinase–Germany), hPI3Kβ (PIK3CB wt/PIK3R1, #1168‐1165‐1 ProQinase, Germany), hPI3Kγ (PIK3CG, #1163‐0000‐1 ProQinase, Germany), hPI3Kδ (PIK3CD/PIK3R1, #1162–1165‐1 ProQinase, Germany), hPI3K‐C2α (PIK3C2A, #14‐906 Merck Millipore_Merck KGaA, Germany), hPI3K‐C2β (PIK3C2B, #14‐907 Merck Millipore_Merck KGaA, Germany), hPI3K‐c2γ (PIK3C2G, #1207‐0000‐1 ProQinase, Germany), and hVps34 (PIK3C3, #1160‐0000‐1 ProQinase, Germany), were incubated in kinase buffer {12.5 μL; 20 mM Tris‐HCl pH 7.5, 10 mM MgCl2, 10 μM ATP, 0.05 mg mL^−1 BSA, 0.5 mM EDTA, 5 mM HEPES pH 7.5, for PI3Kα,PI3Kβ, PI3Kγ, PI3Kδ, PI3KC‐2α, and PI3KC‐2γ; 15 mM MnCl2, 5 mM EGTA, 100 μM ATP, 50 mM HEPES pH 7.5, 100 mM NaCl, and 0.03 % CHAPS for PI3K‐C2β and VPS34 {BSA=bovine serum albumin; EDTA=ethylenediaminetetraacetic acid; HEPES=4‐(2‐hydroxyethyl)‐1‐piperazineethanesulfonic acid; EGTA=ethylene glycol‐bis(2‐aminoethylether)‐N,N,N′,N′‐tetraacetic acid; CHAPS=3‐[(3‐cholamidopropyl)dimethylammonio]‐1‐propanesulfonate}. In the reaction, the ATP concentration used for different PI3Ks was defined on the basis of the Michaelis–Menten kinetics of each enzyme, provided by the supplier. Reaction was performed in presence of 0.5 mg mL^−1 lipid micelles (1:1 phosphatidylinositol/phosphatidylserine) and in the absence (DMSO alone) or presence of increasing concentrations of each compound (from 0.1 nM to 30 μM). The mixture was kept at room temperature (RT) for 30 min for PI3Kα, PI3Kβ, PI3Kγ, PI3Kδ, PI3KC‐2α, and PI3KC‐2γ and for 1 h for PI3K‐C2β and PI3K‐C3. The amount of ADP produced in the reaction was measured by using the ADP‐Glo Kinase Assay kit from Promega (#V9102) and a luminescence reader (Glomax multi detection system, Promega, model number 9301‐010).
(§2) The residual PI3K lipid kinase activity in the presence of each molecule at different concentrations was related to the control, intended as the recombinant protein in the presence of DMSO alone and was expressed as a percentage. To derive the IC50 value, all data (% of lipid kinase activity) were plotted on a dose–response curve (Graph Pad software), and the IC50 was calculated by using nonlinear regression fit (equation [log agonist] versus response).

[2] = molecular target: T2, hPI3Kδ (PIK3CD/PIK3R1) (Homo sapiens, UniProt O00329); assay: lipid kinase assay (ADP-Glo), PI3Kδ; conditions: for inhibition at 1 µM: determined at 1 μM, at least triplicate, read-out: Inhibitory activity, PI3K isoform δ; for IC50: Table 2, mean of at least three determinations, 95 % confidence intervals
T2 construct: purchased ProQinase, Germany 1162–1165‐1
Procedure: as §1, §2

[3] = molecular target: T3, hPI3Kγ (PIK3CG) (Homo sapiens, UniProt P48736); assay: lipid kinase assay (ADP-Glo), PI3Kγ; conditions: for inhibition at 1 µM: determined at 1 μM, at least triplicate, read-out: Inhibitory activity, PI3K isoform γ; for IC50: Table 2, mean of at least three determinations, 95 % confidence intervals
T3 construct: purchased ProQinase, Germany 1163‐0000‐1
Procedure: as §1, §2

[4] = molecular target: T4, hPI3Kβ (PIK3CB wt/PIK3R1) (Homo sapiens, UniProt P42338); assay: lipid kinase assay (ADP-Glo), PI3Kβ; conditions: for inhibition at 1 µM: determined at 1 μM, at least triplicate, read-out: Inhibitory activity, PI3K isoform β; for IC50: Table 2, mean of at least three determinations, 95 % confidence intervals
T4 construct: purchased ProQinase, Germany 1168‐1165‐1
Procedure: as §1, §2

T2 sequence (O00329 whole entry, canonical isoform): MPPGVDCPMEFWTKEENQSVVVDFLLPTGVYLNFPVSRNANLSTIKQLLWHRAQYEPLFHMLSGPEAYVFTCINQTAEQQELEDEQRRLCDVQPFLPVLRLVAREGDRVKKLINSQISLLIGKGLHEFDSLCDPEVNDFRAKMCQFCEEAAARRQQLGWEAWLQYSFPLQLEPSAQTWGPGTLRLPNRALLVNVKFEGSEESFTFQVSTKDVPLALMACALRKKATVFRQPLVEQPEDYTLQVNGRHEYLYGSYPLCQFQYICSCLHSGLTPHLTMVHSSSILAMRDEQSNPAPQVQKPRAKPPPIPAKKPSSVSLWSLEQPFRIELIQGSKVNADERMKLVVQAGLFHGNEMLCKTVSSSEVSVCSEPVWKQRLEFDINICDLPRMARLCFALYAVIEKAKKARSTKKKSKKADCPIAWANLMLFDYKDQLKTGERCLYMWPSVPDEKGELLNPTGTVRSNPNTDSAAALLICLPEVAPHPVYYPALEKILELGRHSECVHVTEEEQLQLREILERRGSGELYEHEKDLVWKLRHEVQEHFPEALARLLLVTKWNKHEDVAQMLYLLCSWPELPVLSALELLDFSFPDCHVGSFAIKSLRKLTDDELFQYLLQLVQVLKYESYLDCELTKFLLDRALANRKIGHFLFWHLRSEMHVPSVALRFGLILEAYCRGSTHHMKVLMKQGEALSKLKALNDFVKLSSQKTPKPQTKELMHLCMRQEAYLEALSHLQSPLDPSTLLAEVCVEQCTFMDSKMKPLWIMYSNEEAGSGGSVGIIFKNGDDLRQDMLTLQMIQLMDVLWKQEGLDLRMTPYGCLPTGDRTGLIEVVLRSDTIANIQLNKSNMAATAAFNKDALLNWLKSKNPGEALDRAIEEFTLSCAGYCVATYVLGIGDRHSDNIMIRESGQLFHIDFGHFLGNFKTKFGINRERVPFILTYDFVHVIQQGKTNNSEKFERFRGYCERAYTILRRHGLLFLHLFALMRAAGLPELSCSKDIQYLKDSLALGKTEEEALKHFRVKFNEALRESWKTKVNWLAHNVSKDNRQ
T2 sequence (P27986 whole entry partner, canonical isoform): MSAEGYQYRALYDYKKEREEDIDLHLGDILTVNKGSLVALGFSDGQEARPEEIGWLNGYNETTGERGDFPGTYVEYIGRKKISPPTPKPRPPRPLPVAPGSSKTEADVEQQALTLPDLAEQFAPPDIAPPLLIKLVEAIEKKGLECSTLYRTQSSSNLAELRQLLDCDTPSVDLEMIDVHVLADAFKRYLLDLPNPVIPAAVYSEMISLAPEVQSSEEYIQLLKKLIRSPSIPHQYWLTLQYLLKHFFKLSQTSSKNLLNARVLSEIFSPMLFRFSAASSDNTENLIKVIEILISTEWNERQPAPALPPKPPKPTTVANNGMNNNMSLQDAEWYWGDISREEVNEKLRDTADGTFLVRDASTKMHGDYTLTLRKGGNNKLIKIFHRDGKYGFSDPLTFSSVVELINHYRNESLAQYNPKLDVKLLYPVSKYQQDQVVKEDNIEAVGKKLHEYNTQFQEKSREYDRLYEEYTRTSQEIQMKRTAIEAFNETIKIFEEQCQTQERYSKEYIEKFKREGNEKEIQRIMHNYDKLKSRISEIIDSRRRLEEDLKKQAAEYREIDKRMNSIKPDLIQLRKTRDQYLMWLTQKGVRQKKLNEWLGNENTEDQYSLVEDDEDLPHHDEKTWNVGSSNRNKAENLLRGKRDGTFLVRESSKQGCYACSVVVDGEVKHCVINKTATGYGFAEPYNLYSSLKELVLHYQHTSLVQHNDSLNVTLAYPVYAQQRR
T1 sequence (P42336 whole entry, canonical isoform): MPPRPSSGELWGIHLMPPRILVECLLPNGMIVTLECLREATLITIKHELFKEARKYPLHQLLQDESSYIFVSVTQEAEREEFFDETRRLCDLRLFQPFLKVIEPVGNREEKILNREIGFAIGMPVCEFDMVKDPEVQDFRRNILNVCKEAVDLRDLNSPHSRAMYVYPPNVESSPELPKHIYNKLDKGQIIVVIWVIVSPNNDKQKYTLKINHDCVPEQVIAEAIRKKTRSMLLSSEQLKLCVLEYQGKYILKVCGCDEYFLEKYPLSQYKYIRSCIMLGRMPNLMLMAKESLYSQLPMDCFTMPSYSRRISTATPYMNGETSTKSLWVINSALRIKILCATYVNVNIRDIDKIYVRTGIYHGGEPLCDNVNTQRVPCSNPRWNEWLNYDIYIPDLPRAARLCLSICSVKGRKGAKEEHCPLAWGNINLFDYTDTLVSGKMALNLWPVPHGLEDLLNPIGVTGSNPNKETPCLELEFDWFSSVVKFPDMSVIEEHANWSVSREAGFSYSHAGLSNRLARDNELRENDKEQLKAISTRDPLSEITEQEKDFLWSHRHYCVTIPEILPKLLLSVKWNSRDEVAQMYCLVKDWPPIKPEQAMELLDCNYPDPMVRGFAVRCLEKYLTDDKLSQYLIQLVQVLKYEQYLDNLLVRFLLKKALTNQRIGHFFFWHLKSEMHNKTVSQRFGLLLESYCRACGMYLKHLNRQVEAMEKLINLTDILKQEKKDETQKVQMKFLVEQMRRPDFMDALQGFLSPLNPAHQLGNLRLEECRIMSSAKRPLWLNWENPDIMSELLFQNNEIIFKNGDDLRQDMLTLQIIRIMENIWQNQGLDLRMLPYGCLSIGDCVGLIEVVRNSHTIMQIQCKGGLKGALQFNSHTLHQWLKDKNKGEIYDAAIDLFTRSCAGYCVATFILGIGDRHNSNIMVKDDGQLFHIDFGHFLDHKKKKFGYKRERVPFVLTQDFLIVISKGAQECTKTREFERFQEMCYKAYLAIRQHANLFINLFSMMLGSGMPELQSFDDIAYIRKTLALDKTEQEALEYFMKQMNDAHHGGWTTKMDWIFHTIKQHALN
T1 sequence (P27986 whole entry partner, canonical isoform): as the sequence (P27986 whole entry partner, canonical isoform) above
T4 sequence (P42338 whole entry, canonical isoform): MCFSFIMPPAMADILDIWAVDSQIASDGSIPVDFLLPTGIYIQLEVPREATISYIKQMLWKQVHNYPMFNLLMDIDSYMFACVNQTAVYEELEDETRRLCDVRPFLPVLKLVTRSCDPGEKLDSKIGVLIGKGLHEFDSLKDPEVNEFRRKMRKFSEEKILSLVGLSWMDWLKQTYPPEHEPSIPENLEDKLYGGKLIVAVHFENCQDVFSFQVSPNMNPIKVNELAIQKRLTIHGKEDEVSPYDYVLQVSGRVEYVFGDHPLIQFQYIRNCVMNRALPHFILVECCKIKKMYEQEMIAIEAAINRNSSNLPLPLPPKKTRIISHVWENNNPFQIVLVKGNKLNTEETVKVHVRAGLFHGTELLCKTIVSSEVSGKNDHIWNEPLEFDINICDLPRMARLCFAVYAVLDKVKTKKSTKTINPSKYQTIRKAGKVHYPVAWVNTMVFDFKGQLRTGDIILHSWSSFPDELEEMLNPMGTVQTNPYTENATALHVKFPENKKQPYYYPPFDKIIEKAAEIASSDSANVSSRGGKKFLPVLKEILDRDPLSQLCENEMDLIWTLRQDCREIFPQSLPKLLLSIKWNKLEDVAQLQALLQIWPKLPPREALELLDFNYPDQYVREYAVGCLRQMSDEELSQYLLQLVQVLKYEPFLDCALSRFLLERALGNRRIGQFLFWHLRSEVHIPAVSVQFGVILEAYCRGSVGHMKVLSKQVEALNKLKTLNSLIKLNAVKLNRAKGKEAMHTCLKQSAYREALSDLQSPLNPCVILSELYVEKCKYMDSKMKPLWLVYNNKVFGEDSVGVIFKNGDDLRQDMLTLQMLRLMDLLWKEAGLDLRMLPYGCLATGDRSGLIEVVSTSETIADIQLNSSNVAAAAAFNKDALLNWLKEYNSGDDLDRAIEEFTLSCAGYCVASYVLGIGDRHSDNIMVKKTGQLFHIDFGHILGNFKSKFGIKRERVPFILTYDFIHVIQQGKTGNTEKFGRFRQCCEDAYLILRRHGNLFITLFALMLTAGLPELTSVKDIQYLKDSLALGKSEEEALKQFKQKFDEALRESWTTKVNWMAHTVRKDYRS
T4 sequence (P27986 whole entry partner, canonical isoform): as the sequence (P27986 whole entry partner, canonical isoform) above
T3 sequence (P48736 whole entry, canonical isoform): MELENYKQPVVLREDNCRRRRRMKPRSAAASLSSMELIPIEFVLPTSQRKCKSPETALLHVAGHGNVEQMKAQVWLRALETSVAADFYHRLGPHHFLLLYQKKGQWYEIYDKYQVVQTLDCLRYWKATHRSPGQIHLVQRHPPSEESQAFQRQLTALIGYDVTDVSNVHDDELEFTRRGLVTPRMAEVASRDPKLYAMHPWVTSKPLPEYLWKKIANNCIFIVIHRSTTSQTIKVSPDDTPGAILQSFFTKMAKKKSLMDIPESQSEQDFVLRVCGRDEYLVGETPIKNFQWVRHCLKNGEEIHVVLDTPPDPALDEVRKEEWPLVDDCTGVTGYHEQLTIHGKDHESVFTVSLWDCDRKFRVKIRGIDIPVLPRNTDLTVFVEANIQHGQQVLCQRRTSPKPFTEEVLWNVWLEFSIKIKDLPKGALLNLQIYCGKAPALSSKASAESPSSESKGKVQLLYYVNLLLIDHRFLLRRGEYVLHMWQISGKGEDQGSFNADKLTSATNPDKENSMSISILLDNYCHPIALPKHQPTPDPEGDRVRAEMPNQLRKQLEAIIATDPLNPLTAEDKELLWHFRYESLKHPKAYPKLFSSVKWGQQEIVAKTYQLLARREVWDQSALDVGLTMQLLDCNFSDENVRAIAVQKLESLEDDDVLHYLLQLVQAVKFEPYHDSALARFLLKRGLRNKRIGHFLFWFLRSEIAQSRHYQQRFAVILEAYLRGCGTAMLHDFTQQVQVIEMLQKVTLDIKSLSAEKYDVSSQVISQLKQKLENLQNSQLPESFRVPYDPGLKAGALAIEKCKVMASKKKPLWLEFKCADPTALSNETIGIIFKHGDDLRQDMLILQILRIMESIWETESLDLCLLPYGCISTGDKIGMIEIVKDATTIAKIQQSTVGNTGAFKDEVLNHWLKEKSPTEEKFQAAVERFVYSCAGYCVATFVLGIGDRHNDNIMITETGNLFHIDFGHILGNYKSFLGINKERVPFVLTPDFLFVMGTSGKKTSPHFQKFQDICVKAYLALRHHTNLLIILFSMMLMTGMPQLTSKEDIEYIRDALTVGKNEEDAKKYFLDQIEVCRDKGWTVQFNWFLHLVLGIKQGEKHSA

Row | SMILES | inhibition at 1 µM [1] | inhibition at 1 µM [2] | inhibition at 1 µM [3] | inhibition at 1 µM [4] | IC50 [1] | IC50 [2] | IC50 [3] | IC50 [4]
1 | COc1ccc(-n2cc(-c3cccc4c(=O)cc(N5CCOCC5)[nH]c34)nn2)cc1[N+](=O)[O-] [Compound 30, 8‐[1‐(4‐Methoxy‐3‐nitrophenyl)‐1H‐1,2,3‐triazol‐4‐yl]‐2‐morpholinoquinolin‐4(1H)‐one] | < 50% | < 50% | < 50% | < 50% | – | – | – | –
2 | Cc1cc(F)ccc1Oc1cccc2c(=O)cc(N3CCOCC3)[nH]c12 [TGX155, reference compound] | – | – | – | – | > 10000 nM | 410 ± 130 nM | 9400 ± 1200 nM | 96 ± 7 nM
3 | O=c1cc(N2CCOCC2)[nH]c2c(-c3cn(-c4cccc5ccccc45)nn3)cccc12 [Compound 53, 2‐Morpholino‐8‐[1‐(naphthalen‐1‐yl)‐1H‐1,2,3‐triazol‐4‐yl]quinolin‐4(1H)‐one] | < 50% | < 50% | < 50% | < 50% | – | – | – | –
4 | COC(=O)c1ccc(Cn2cc(-c3cccc4c(=O)cc(N5CCOCC5)[nH]c34)nn2)cc1 [Compound 31, Methyl‐4‐{[4‐(2‐morpholino‐4‐oxo‐1,4‐dihydroquinolin‐8‐yl)‐1H‐1,2,3‐triazol‐1‐yl]methyl}benzoate] | < 50% | < 50% | < 50% | < 50% | – | – | – | –
5 | O=C(O)c1cccc(-n2cc(-c3cccc4c(=O)cc(N5CCOCC5)[nH]c34)nn2)c1 [Compound 52, 3‐[4‐(2‐Morpholino‐4‐oxo‐1,4‐dihydroquinolin‐8‐yl)‐1H‐1,2,3‐triazol‐1‐yl]benzoic acid] | < 50% | < 50% | < 50% | < 50% | – | – | – | –
6 | O=c1cc(N2CCOCC2)[nH]c2c(-c3cn(Cc4ccccc4)nn3)cccc12 [Compound 48, 8‐(1‐Benzyl‐1H‐1,2,3‐triazol‐4‐yl)‐2‐morpholinoquinolin‐4(1H)‐one] | < 50% | > 50% | > 50% | > 50% | 2650 ± 800 nM | 470 ± 260 nM | 1000 ± 500 nM | 100 ± 40 nM

Results, then the compound that gave them:

Row | inhibition at 1 µM [1] | inhibition at 1 µM [2] | inhibition at 1 µM [3] | inhibition at 1 µM [4] | IC50 [1] | IC50 [2] | IC50 [3] | IC50 [4] | SMILES
7 | > 50% | > 50% | < 50% | < 50% | 260 ± 120 nM | 350 ± 170 nM | 1400 ± 440 nM | 1100 ± 500 nM | O=c1cc(N2CCOCC2)[nH]c2c(-c3cn(-c4ccccc4O)nn3)cccc12 [Compound 54, 8‐[1‐(2‐Hydroxyphenyl)‐1H‐1,2,3‐triazol‐4‐yl]‐2‐morpholinoquinolin‐4(1H)‐one]
8 | > 50% | > 50% | < 50% | < 50% | 740 ± 310 nM | 610 ± 270 nM | 3000 ± 1000 nM | 5500 ± 2500 nM | O=c1cc(N2CCOCC2)[nH]c2c(-c3cn(-c4ccccc4)nn3)cccc12 [Compound 25, 2‐Morpholino‐8‐(1‐phenyl‐1H‐1,2,3‐triazol‐4‐yl)quinolin‐4(1H)‐one]
9 | < 50% | < 50% | < 50% | < 50% | – | – | – | – | O=c1cc(N2CCOCC2)[nH]c2c(-c3cn(-c4ccc(Cl)cc4)nn3)cccc12 [Compound 28, 8‐[1‐(4‐Chlorophenyl)‐1H‐1,2,3‐triazol‐4‐yl]‐2‐morpholinoquinolin‐4(1H)‐one]
10 | < 50% | < 50% | < 50% | < 50% | – | – | – | – | O=c1cc(N2CCOCC2)[nH]c2c(-c3cn(-c4ccc(OC(F)(F)F)cc4)nn3)cccc12 [Compound 29, 2‐Morpholino‐8‐{1‐[4‐(trifluoromethoxy)phenyl]‐1H‐1,2,3‐triazol‐4‐yl}quinolin‐4(1H)‐one]
11 | < 50% | < 50% | < 50% | < 50% | – | – | – | – | COC(=O)c1ccc(-n2cc(-c3cccc4c(=O)cc(N5CCOCC5)[nH]c34)nn2)cc1 [Compound 42, Methyl 4‐[4‐(2‐morpholino‐4‐oxo‐1,4‐dihydroquinolin‐8‐yl)‐1H‐1,2,3‐triazol‐1‐yl]benzoate]
